Test results published in patent publication US12655101B2, “Small molecules with antibacterial activity” (NEW MEXICO TECH UNIVERSITY RESEARCH PARK CORPORATION, priority 2021, dated 2026).
Converted amounts (≈) assume the structure as drawn. Like-named read-outs stand apart in the source and are kept apart here.

Columns and labels:
[1] = system: A. baumannii ATCC BAA-1797; test: MIC on A. baumannii ATCC BAA-1797; format: cell-based
Method: A. baumannii: A. baumannii ATCC BAA-1797 was grown from a glycerol stock by placing a small volume of cells onto a MHA plate. The MHA plate was incubated overnight at 37° C. A single colony was used to inoculate MHB to obtain a bacterial broth suspension. The MHB broth suspension was grown at 37° C. on a rotary shaking incubator (100 rpm) for 12 hours. The bacterial cell concentration was adjusted to ˜5×10^5 CFU/mL in MHB or MHB+10%, 20% or 40% FBS using OD at 595 nm. 500 μL aliquots of the adjusted bacterial cell suspension were placed into borosilicate glass tubes. The cell suspensions were treated with a compound of interest, and the treatments were serially diluted two-fold. The culture tubes were incubated for 18 hours at 37° C. Efficacy was either assessed visually or by adding 10% v/v MTT (5 mg/mL stock) after the 18 hour incubation period. The cell suspensions were subsequently incubated for 10 minutes to allow the MTT reagent to carry out the colorimetric reaction. The OD was read at 595 nm.

MRSA ATCC BAA-44 = test: MIC on MRSA ATCC BAA-44; format: cell-based, S. aureus; conditions: Staphylococcus aureus
Method: MRSA BAA-44: MRSA ATCC BAA-44 was grown from a glycerol stock by placing a small volume of cells onto a Mueller-Hinton agar plate (MHA). The MHA plate was incubated overnight at 37° C. A single colony was used to inoculate Mueller-Hinton broth (MHB) to obtain a bacterial broth suspension. The MHB broth suspension was grown at 37° C. on a rotary shaking incubator (100 rpm) for 12 hours. The bacterial cell concentration was adjusted to ˜5×10^5 colony forming units per milliliter (CFU/mL) in MHB−/+10, 20, or 40% FBS using optical density (OD) at 595 nm. 500 μL aliquots of the adjusted bacterial cell suspension were placed into borosilicate glass tubes. The cell suspensions were treated with 100 μM compound of interest and serially diluted two-fold. The culture tubes were incubated for 18 hours at 37° C. Efficacy was either assessed visually or by adding 10% v/v MTT (5 mg/mL stock) after the 18 hour incubation period, where the cell suspensions were subsequently incubated for 10 minutes to allow the MTT reagent to carry out the colorimetric reaction.

[2] = Acinetobacter baumannii, ATCC 1797 / ATCC BAA-1797, 0% FBS, read-out: MIC (μM) in MDR A. baumannii ATCC 1797 0% FBS
[3] = 10% FBS, read-out: MIC (μM) in MRSA BAA-44 10% FBS
[4] = Acinetobacter baumannii, ATCC 1797 / ATCC BAA-1797, 10% FBS, read-out: MIC (μM) in MDR A. baumannii ATCC 1797 10% FBS
[5] = Acinetobacter baumannii, ATCC 1797 / ATCC BAA-1797, read-out: MIC (μM) in MDR A. baumannii ATCC 1797 40% FBS, 40% FBS
[6] = no serum (note in the cell), read-out: MIC (μM) in MRSA BAA-44
[7] = Acinetobacter baumannii, ATCCBAA1797, 18 h, read-out: MIC in the presence of 40% FBS, A. baumannii ATCC BAA-1797, 40% FBS
[8] = Acinetobacter baumannii, ATCCBAA1797, A. baumannii ATCC BAA-1797, absence of serum, read-out: MIC in the absence of serum
[9] = in FBS (note in the cell, percentage not given), read-out: MIC (μM) in MRSA BAA-44

SMILES	MIC [1, 2] [µM]	MIC (MRSA ATCC BAA-44; [3]) [µM]	MIC [1, 4] [µM]	MIC [1, 5] [µM]	also measured
Brc1ccc(/N=N/c2c[nH]c3cccc(Nn4nnc5ccccc54)c23)cc1 [Compound 1, (E)-N-(3-((4-bromophenyl)diazenyl)-1H-indol-4-yl)-1H-benzo[d][1,2,3]triazol-1-amine]	50 (≈ 21.6 µg/mL)	–	–	–	–
N=C(N)NCCC(N)C(=O)Nc1cccc2[nH]cc(/N=N/c3ccc(Br)cc3)c12 (centres unmarked) [Compound 6, (E)-2-amino-N-(3-((4-bromophenyl)diazenyl)-1H-indol-4-yl)-4-guanidinobutanamide]	25 (≈ 11.4 µg/mL)	25 (≈ 11.4 µg/mL)	> 100	100 (≈ 45.7 µg/mL)	–
Clc1ccc(N/N=C/c2c[nH]c3ccccc23)cc1 [Compound 7, (E)-3-((2-(4-chlorophenyl)hydrazineylidene)methyl)-1H-indole]	–	–	–	–	MIC (MRSA ATCC BAA-44; read-out: MIC (μM) in MRSA BAA-44 10% FBS): 100 µM (≈ 27 µg/mL); MIC ([1]; Acinetobacter baumannii, ATCC 1797 / ATCC BAA-1797, read-out: MIC (μM) in MDR A. baumannii ATCC 1797 0% FBS): 5 µM (≈ 1.35 µg/mL); MIC ([1]; Acinetobacter baumannii, ATCC 1797 / ATCC BAA-1797, read-out: MIC (μM) in MDR A. baumannii ATCC 1797 10% FBS): 25 µM (≈ 6.74 µg/mL); MIC ([1]; Acinetobacter baumannii, ATCC 1797 / ATCC BAA-1797, read-out: MIC (μM) in MDR A. baumannii ATCC 1797 40% FBS): 50 µM (≈ 13.5 µg/mL)
O=C(O)c1ccc(N/N=C/c2c[nH]c3ccccc23)cc1 [Compound 10, (E)-4-(2-((1H-indol-3-yl)methylene)hydrazineyl) benzoic acid]	> 100	–	–	–	MIC (MRSA ATCC BAA-44; [6]): 100 µM (≈ 27.9 µg/mL)
N#CCC(=O)N/N=C/c1c[nH]c2ccccc12 [Compound 11, (E)-N′-((1H-indol-3-yl)methylene)-2-cyanoacetohydrazide]	> 100	> 100	> 100	> 100	–
Clc1ccccc1N/N=C/c1c[nH]c2ccccc12 [Compound 12, (E)-3-((2-(2-chlorophenyl)hydrazineylidene)methyl)-1H-indole]	12.5 (≈ 3.37 µg/mL)	–	> 100	> 100	MIC (MRSA ATCC BAA-44; [6]): 25 µM (≈ 6.74 µg/mL)
CC(C)(C)OC(=O)N[C@@H](CCCNC(=N)N)C(=O)Oc1cccc2[nH]cc(/C=N/Nc3ccc(Cl)cc3)c12 [Compound 17, (E)-3-((2-(4-chlorophenyl)hydrazineylidene)methyl)-1H-indol-4-yl (tert-butoxycarbonyl) argininate]	> 100	> 100	> 100	> 100	–
CCCCCC(=O)Oc1cccc2[nH]cc(/C=N/Nc3ccc(Br)cc3)c12 [Compound 22, (E)-3-((2-(4-bromophenyl)hydrazineylidene)methyl)-1H-indol-4-yl hexanoate]	25 (≈ 10.7 µg/mL)	–	–	> 100	MIC (MRSA ATCC BAA-44; [9]): > 100 µM; MIC (MRSA ATCC BAA-44; [6]): 25 µM (≈ 10.7 µg/mL)
Brc1ccc(N/N=C/c2c[nH]c3ccc(Br)cc23)cc1 [Compound 23, (E)-1-((5-bromo-1H-indol-3-yl)methylene)-2-(4-bromophenyl)hydrazin-1-ium chloride]	12.5	–	–	–	MIC ([1]; Acinetobacter baumannii, ATCC 1797 / ATCC BAA-1797, in human serum (note in the cell of the 40% FBS column), read-out: MIC (μM) in MDR A. baumannii ATCC 1797): < 100 µM
N#Cc1ccc(N/N=C/c2c[nH]c3cccc(OCc4ccccc4)c23)cc1 [Compound 28]	25 (≈ 9.16 µg/mL)	–	–	100 (≈ 36.6 µg/mL)	–
COc1ccc(N/N=C/c2c[nH]c3cccc(OCc4ccccc4)c23)cc1 [Compound 30, (E)-4-(benzyloxy)-3-((2-(4-methoxyphenyl) hydrazineylidene)methyl)-1H-indole]	> 100	> 100	> 100	> 100	MIC [1, 7]: 100 µM; MIC [1, 8]: 20 µM (≈ 7.43 µg/mL)
Fc1ccc(N/N=C/c2c[nH]c3cccc(OCc4ccccc4)c23)cc1 [Compound 31, (E)-4-(benzyloxy)-3-((2-(4-fluorophenyl)hydrazineylidene)methyl)-1H-indole]	–	~100 (≈ 35.9 µg/mL)	–	–	MIC ([1]; 0% FBS, read-out: MIC (μM) in MDR A. baumannii ATCC 1797 0% FBS): 12.5 µM (≈ 4.49 µg/mL)
Clc1ccc(N/N=C/c2c[nH]c3cccc(OCc4ccccc4)c23)c(Cl)c1 [Compound 32, (E)-4-(benzyloxy)-3-((2-(2,4-dichlorophenyl)hydrazineylidene)methyl)-1H-indole]	> 100	–	–	–	–

Continued, in another order:

MIC [1, 2] [µM]	MIC (MRSA ATCC BAA-44; [3]) [µM]	MIC [1, 4] [µM]	MIC [1, 5] [µM]	SMILES	also measured
> 100	> 100	–	–	Cn1cc(/N=N/c2ccc(Br)cc2)c2c([N+](C)(C)C)cccc21 [Compound 2, (E)-3-((4-bromophenyl)diazenyl)-N,N,N,1-tetramethyl-1H-indol-4-aminium iodide]	–
> 100	–	> 100	–	O=[N+]([O-])c1ccc2[nH]cc(/N=N/c3ccc(Br)cc3)c2c1 [Compound 3, (E)-3-((4-bromophenyl)diazenyl)-5-nitro-1H-indole]	–
> 100	–	> 100	–	NC(=O)CC(N)C(=O)Nc1cccc2[nH]cc(/N=N/c3ccc(Br)cc3)c12 (centres unmarked) [Compound 5, (E)-2-amino-N^1-(3-((4-bromophenyl)diazenyl)-1H-indol-4-yl)succinamide]	–
40 (≈ 9.41 µg/mL)	> 100	> 100	50 (≈ 11.8 µg/mL)	C(=N\Nc1ccccc1)/c1c[nH]c2ccccc12 [Compound 8, (E)-3-((2-phenylhydrazineylidene)methyl)-1H-indole]	–
> 100	–	–	–	O=[N+]([O-])c1ccc(N/N=C/c2c[nH]c3ccccc23)cc1 [Compound 9, (E)-3-((2-(4-nitrophenyl)hydrazineylidene)methyl)-1H-indole]	–
5 (≈ 1.26 µg/mL)	100 (≈ 25.1 µg/mL)	100 (≈ 25.1 µg/mL)	> 100	Oc1cccc2[nH]cc(/C=N/Nc3ccccc3)c12 [Compound 13, (E)-3-((2-phenylhydrazineylidene)methyl)-1H-indol-4-ol]	–
3 (≈ 1.33 µg/mL)	> 100	> 100	> 100	N=C(N)NCCC[C@H](N)C(=O)Oc1cccc2[nH]cc(/C=N/Nc3ccc(Cl)cc3)c12 [Compound 16, (E)-3-((2-(4-chlorophenyl)hydrazineylidene)methyl)-1H-indol-4-yl argininate]	–
3 (≈ 1.15 µg/mL)	–	–	> 100	CC(C)(C)OC(=O)Nc1cccc2[nH]cc(/C=N/Nc3ccc(Cl)cc3)c12 [Compound 18]	MIC (MRSA ATCC BAA-44; MRSA ATCC BAA-44, serum not stated, read-out: MIC): 12.5 µM (≈ 4.81 µg/mL); MIC (MRSA ATCC BAA-44; [6]): 12.5 µM (≈ 4.81 µg/mL); MIC [1, 7]: > 100 µM; MIC [1, 8]: 3 µM (≈ 1.15 µg/mL)
> 100	> 100	–	> 100	C(=N\Nc1ncccn1)/c1c[nH]c2ccccc12 [Compound 19, (E)-3-((2-(pyrimidin-2-yl)hydrazineylidene)methyl)-1H-indole]	–
25 (≈ 8.25 µg/mL)	–	–	> 100	Oc1cccc2[nH]cc(/C=N/Nc3ccc(Br)cc3)c12 [Compound 20, (E)-3-((2-(4-bromophenyl)hydrazineylidene)methyl)-1H-indol-4-ol]	MIC (MRSA ATCC BAA-44; [9]): > 100 µM; MIC (MRSA ATCC BAA-44; [6]): 25 µM (≈ 8.25 µg/mL)
25 (≈ 6.73 µg/mL)	–	–	> 100	Oc1cccc2[nH]cc(/C=N/Nc3ccc(F)cc3)c12 [Compound 21, (E)-3-((2-(4-fluorophenyl)hydrazineylidene)methyl)-1H-indol-4-ol]	MIC (MRSA ATCC BAA-44; [9]): > 100 µM; MIC (MRSA ATCC BAA-44; [6]): 25 µM (≈ 6.73 µg/mL)
< 100	–	–	> 100	CC(=O)n1cc(/C=N/Nc2ccc(Cl)cc2)c2ccccc21 [Compound 24, (E)-1-(3-((2-(4-chlorophenyl)hydrazineylidene)methyl)-1H-indol-1-yl)ethan-1-one]	–
> 100	–	–	> 100	O=S(=O)(N/N=C/c1c[nH]c2cccc(OCc3ccccc3)c12)c1ccccc1 [Compound 29, (E)-N′-((4-(benzloxy)-1H-indol-3-yl)methylene)benzenesulfonohydrazide]	–
> 100	–	–	> 100	Nc1cccc2c(S(=O)(=O)N/N=C/c3c[nH]c4cccc(OCc5ccccc5)c34)cccc12 [Compound 33, (E)-5-amino-N′-((4-(benzyloxy)-1H-indol-3-yl)methylene)naphthalene-1-sulfonohydrazide]	MIC (MRSA ATCC BAA-44; [6]): > 100 µM
